# Assay results published in PubChem BioAssay AID977613 (Broad Institute, 2014).
# Activity calls are given as the source filed them. How the calls were made is not given here.
# System: Broad 7084-01 inhibitor HTS, set 2
# Test: single-concentration hits, screen 7084 set 2 (AID 977613);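 further: host cells are infected with parasite promastigotes that become internalized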
row,Structure (SMILES),active concentration
1,CCCN1[C@@H]2c3ccc(C4=CCCCC4)c(=O)n3C[C@@H]2[C@@H](CO)[C@@H]1C(=O)NC1Cc2ccccc2C1,> 10 µM (inactive)
2,CC=Cc1ccc2n(c1=O)C[C@H]1[C@H](CO)[C@@H](C(=O)OC)N(CCc3ccccc3)[C@@H]21 (mixture of isomers),> 10 µM (inactive)
3,O=C(c1cnccn1)N1CC(=O)N2[C@@H](CO)[C@H](c3ccc(C#CC4CC4)cc3)[C@@H]2C1,> 10 µM (inactive)
4,O=C(C[C@@H]1CC[C@@H]2[C@H](COC[C@@H](O)CN2S(=O)(=O)c2ccccc2)O1)Nc1ccccc1,> 10 µM (inactive)
5,CCS(=O)(=O)N1CCC2(CC1)CN(C(=O)Nc1c(C)noc1C)[C@H](CO)c1c2c2ccc(OC)cc2n1C,> 10 µM (inactive)
6,O=C1CNC[C@@H]2[C@@H](c3ccc(-c4ccccc4F)cc3)[C@H](CO)N12,> 10 µM (inactive)
7,Cc1ccccc1-c1ccccc1[C@@H]1[C@@H](C#N)N(C(=O)c2ccccc2)[C@H]1CO,> 10 µM (inactive)
8,COc1ccc(-c2ccccc2[C@H]2[C@@H](CO)N(C(=O)NC(C)C)[C@H]2C#N)cc1,> 10 µM (inactive)
9,O=C(Nc1ccccc1F)N1CC(=O)N2[C@@H](CO)[C@H](c3ccc(-c4cccnc4)cc3)[C@@H]2C1,> 10 µM (inactive)
10,CCCC#Cc1ccc([C@@H]2[C@H]3CN(C(=O)c4cccnc4)CC(=O)N3[C@H]2CO)cc1,> 10 µM (inactive)
11,CCNC(=O)C[C@@H]1CC[C@H]2[C@@H](COC[C@@H](O)CN2C(=O)C2CC2)O1,> 10 µM (inactive)
12,COc1ccc(-c2ccccc2[C@H]2[C@@H](C#N)N(C(=O)C3CCCCC3)[C@H]2CO)cc1,> 10 µM (inactive)
13,CN1C(=O)c2cc(NC(=O)c3cnccn3)ccc2OC[C@@H]2O[C@@H](CC(=O)NCC3CCCCC3)CC[C@H]21,> 10 µM (inactive)
14,COCC(=O)N1CC2(CCN(Cc3cccnc3)CC2)c2c(n(C)c3cc(OC)ccc23)[C@@H]1CO,> 10 µM (inactive)
15,O=C1CNC[C@H]2[C@@H](c3ccc(-c4ccccc4F)cc3)[C@H](CO)N12,> 10 µM (inactive)
16,O=C(C[C@@H]1CC[C@H]2[C@@H](COC[C@H](O)CN2C(=O)c2ccncc2)O1)NCc1ccc(-c2ccccc2)cc1,> 10 µM (inactive)
17,O=C(C[C@@H]1CC[C@@H]2[C@H](COC[C@H](O)CN2Cc2cc(F)cc(F)c2)O1)NC1CCC1,> 10 µM (inactive)
18,OC[C@@H]1[C@@H](c2ccccc2)C2(CN(Cc3nccs3)C2)N1CC1CCOCC1,> 10 µM (inactive)
19,CCNC(=O)Nc1ccc2c(c1)C(=O)N(C)[C@H]1CC[C@@H](CC(=O)N[C@H](C)c3ccccc3)O[C@H]1CO2,> 10 µM (inactive)
20,Cc1cccc(S(=O)(=O)N2CC[C@@H]3[C@H]2c2cc(C#Cc4ccccc4F)ccc2N[C@@H]3CO)c1,> 10 µM (inactive)
21,Cc1ccc(S(=O)(=O)N2CC[C@H]3[C@H](CO)Nc4ccc(C#Cc5ccc(F)cc5)cc4[C@H]32)cc1,> 10 µM (inactive)
22,O=C(Nc1ccccc1F)N1CC(=O)N2[C@H](CO)[C@@H](c3ccc(-c4cccnc4)cc3)[C@@H]2C1,> 10 µM (inactive)
23,COc1ccccc1NC(=O)N1CC(=O)N2[C@H](CO)[C@H](c3ccc(-c4cccc(C)c4)cc3)[C@@H]2C1,> 10 µM (inactive)
24,Cc1ccccc1-c1ccccc1[C@@H]1[C@H](C#N)N(C(=O)c2ccccc2)[C@H]1CO,> 10 µM (inactive)
25,O=C(C[C@H]1CC[C@@H]2[C@H](COC[C@H](O)CN2Cc2cc(F)ccc2F)O1)NCc1ccc(F)cc1,> 10 µM (inactive)
26,O=C(C[C@@H]1CC[C@@H]2[C@H](COC[C@@H](O)CN2Cc2ccc3c(c2)OCO3)O1)Nc1ccccc1,> 10 µM (inactive)
27,OC[C@@H]1[C@@H](c2ccc(C#CC3(O)CCCC3)cc2)[C@@H]2CN(Cc3cncnc3)CCCCN12,> 10 µM (inactive)
